Results on 13 compounds are retold here after publication PMC6484527 (Slas Discovery, 2018).

A word on the EC50: it is the concentration that produces a half-maximal response. A lower EC50 goes with an effect from little substance.

The target in assay [1] is T1, B-Raf (Homo sapiens, UniProt P15056, V600E). As to the kind of experiment: cell-based. The assay is classed as cell-based. Particulars: for EC50: B-Raf ITDRFCETSA pEC50, 2 h incubation with live A375 cells, mean ± standard deviation of ⩾3 technical repeats.
T1 sequence (P15056 whole entry V600E): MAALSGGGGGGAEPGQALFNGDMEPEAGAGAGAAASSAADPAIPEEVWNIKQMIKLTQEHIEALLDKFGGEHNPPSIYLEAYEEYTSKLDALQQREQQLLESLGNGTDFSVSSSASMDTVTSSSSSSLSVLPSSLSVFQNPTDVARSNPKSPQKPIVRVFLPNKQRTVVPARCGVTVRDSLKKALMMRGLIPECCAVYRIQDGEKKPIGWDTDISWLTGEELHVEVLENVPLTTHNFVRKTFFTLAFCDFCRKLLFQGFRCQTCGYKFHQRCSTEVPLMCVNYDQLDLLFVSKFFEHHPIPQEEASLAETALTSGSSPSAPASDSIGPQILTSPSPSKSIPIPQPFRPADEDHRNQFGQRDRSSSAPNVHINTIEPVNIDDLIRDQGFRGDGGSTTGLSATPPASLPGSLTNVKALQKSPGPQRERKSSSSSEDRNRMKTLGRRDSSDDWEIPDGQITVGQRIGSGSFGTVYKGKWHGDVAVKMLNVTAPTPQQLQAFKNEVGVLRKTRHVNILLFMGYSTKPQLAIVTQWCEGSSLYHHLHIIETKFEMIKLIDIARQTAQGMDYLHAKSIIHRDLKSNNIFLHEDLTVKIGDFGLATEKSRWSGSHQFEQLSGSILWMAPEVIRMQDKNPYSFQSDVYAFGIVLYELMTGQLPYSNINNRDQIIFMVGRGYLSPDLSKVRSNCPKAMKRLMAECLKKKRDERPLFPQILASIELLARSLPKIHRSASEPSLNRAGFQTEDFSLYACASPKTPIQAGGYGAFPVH
The target in assay [2] is T1, B-Raf. The assay can be described thus: B-Raf CETSA HT single-concentration screen of kinase inhibitor library. It counts as cell-based. To be noted: 30 µM, 2 h incubation with live A375 cells, 49 °C heatshock, two technical repeats.
Assay [3] concerns the target purified B-Raf protein (Homo sapiens, UniProt P15056). The assay can be described thus: Differential scanning fluorimetry with purified B-Raf protein. The assay is classed as binding. To be noted: same concentration (30 µM); data not shown. For orientation: DSF heats the sample and reads unfolding from a dye or from intrinsic fluorescence.
[4] abbreviates: A375 cells, at least three technical repeats.

The structures appear in SMILES notation. Read-outs that look alike come from different tables or passages of the source. Some results are limits rather than exact numbers.

purified B-Raf protein, sequence (P15056 whole entry): as the sequence (P15056 whole entry V600E) above, with E600V counted along it

With `CNc1ncc2cc(-c3cc(NC(=O)NCCC(C)(C)C)c(F)cc3C)c(C)nc2n1` [LY3009120], in assay [1], the “B-Raf ITDRFCETSA activity (in words)” value is “clear evidence of target engagement”.
On the same count and under the same terms, as for `CCCS(=O)(=O)Nc1ccc(F)c(C(=O)c2c[nH]c3ncc(Cl)cc23)c1F` [PLX4720], the entry is “clear evidence of target engagement”.
Consider `C[C@@H](Oc1cc(-c2cnn(C3CCNCC3)c2)cnc1N)c1c(Cl)ccc(F)c1Cl` [Crizotinib, crizotinib], for which the “B-Raf ITDRFCETSA activity (in words)” value in assay [1] (setting [4]) is “inactive”.
Take `Cc1ccc(C(=O)Nc2ccc(CN3CCN(C)CC3)c(C(F)(F)F)c2)cc1C#Cc1cnc2cccnn12` [ponatinib]: in assay [2], the “Thermal stabilization of B-Raf in CETSA HT screen (hit call)” value (“Thermal stabilization of B-Raf” below) is recorded as “showed activity”.
In the case of `CC(C)(C)c1nc(-c2cccc(NS(=O)(=O)c3c(F)cccc3F)c2F)c(-c2ccnc(N)n2)s1` [Dabrafenib, dabrafenib], the “Thermal stabilization of B-Raf” value in assay [2] is recorded as “active”. Besides, the “B-Raf ITDRFCETSA activity (in words)” value in assay [1] is on record as “clear evidence of target engagement”.
Consider `CNS(=O)(=O)Nc1nccc(Cc2c(C)c3ccc(Oc4ncccn4)cc3oc2=O)c1F` [CH-5126766], for which the “B-Raf ITDRFCETSA activity (in words)” value in assay [1] (setting [4]) is given as “weak activity”. This compound had an EC50 in assay [1] of 10 µM.
Turning to `O=C(NOCCO)c1ccc2cncn2c1Nc1ccc(I)cc1F` [GDC-0623], the “B-Raf ITDRFCETSA activity (in words)” value in assay [1] (setting [4]) was “inactive”. This compound also showed an EC50 in assay [1] above 31.6 µM.
As for `OCCn1cc(-c2ccc3c(c2)CC/C3=N\O)c(-c2ccncc2)n1` [GDC-0879], in assay [2], the “Thermal stabilization of B-Raf” value is “hits”.
On to `O=C(Nc1ccc2[nH]nc(-c3ccncc3)c2c1)[C@@H]1CCN(CC(=O)N2CCN(c3ccc(-c4ncccn4)cc3)CC2)C1` [SCH772984], for which the “B-Raf ITDRFCETSA activity (in words)” value in assay [1] (setting [4]) is “inactive”. Also, the EC50 in assay [1] was above 31.6 µM.
As for `CCCS(=O)(=O)Nc1ccc(F)c(C(=O)c2c[nH]c3ncc(-c4ccc(Cl)cc4)cc23)c1F` [Vemurafenib, vemurafenib], the “Thermal stabilization of B-Raf” value in assay [2] is recorded as “active”. Also, the “B-Raf ITDRFCETSA activity (in words)” value in assay [1] is on record as “clear evidence of target engagement”.
Regarding `Cc1ccc(NC(=O)c2cccc(C(C)(C)C#N)c2)cc1Nc1ccc2ncn(C)c(=O)c2c1` [AZ628], in assay [1] (setting [4]), the “B-Raf ITDRFCETSA activity (in words)” value was “clear evidence of target engagement”.
`CCn1c(=O)c(-c2cc(NC(=O)Nc3ccccc3)c(F)cc2Br)cc2cnc(NC)cc21` [DCC-2618]: in assay [2], the “Thermal stabilization of B-Raf” value is “Activity was also observed”. Besides, the “Thermal stabilization of purified B-Raf protein by differential scanning fluorimetry” value in assay [3] is reported as “showed thermal stabilization”.
Turning to `COc1cc2ncnc(Oc3cccc(NC(=O)Nc4cc(C(C)(C)C(F)(F)F)on4)c3)c2cc1OC` [CEP-32496], in assay [2], the “Thermal stabilization of B-Raf” value is recorded as “hits”.
